Test results: US7432269B2, “Arylpiperaszine derivatives, to the process for the production thereof and to the use thereof as therapeutic agents” (Bioprojet, priority 2004, dated 2008)
Counter-ions that a name gives are not always drawn.

What was measured:
[1] = molecular target: T1, human D3 dopamine receptor (hD3) (Homo sapiens, UniProt P35462); test: [3H]spiperone binding to human D3 dopamine receptor (transfected CHO cell membranes); conditions: CHO cells transfected with hD3
T1 construct: expressed in transfected cells; host or cells: CHO cells
Procedure: CHO cells were transfected with the gene coding for the human D3 dopamine receptor (hD3). [^3H]spiperone binding (0.5 to 2 nM) is performed in the presence of 5 to 10 μg of membrane proteins in a medium containing 120 mM of NaCl, 5 mM of KCl, and 50 mM of Tris-HCl pH 7.4; incubation of 60 minutes at ambient temperature is necessary. Non-specific binding is estimated in the presence of 5 μM of haloperidol. Non-transfected cells have absolutely no binding activity.

[2] = tested on: human alpha-1 adrenergic receptor (hα1); test: [3H]prasozin binding to human alpha-1 adrenergic receptor (transfected HEK 293 cell membranes); conditions: HEK 293 cells transfected with hα1
Procedure: HEK 293 cells were transfected with the gene coding for the human alpha-1 adrenergic receptor (hα1). [3H]prasozin binding (0.02 to 2 nM) is performed in the presence of 5 to 10 μg of membrane proteins in a medium containing 0.5 mM of EDTA and 50 mM of Tris-HCl pH 7.4; incubation of 60 minutes at ambient temperature is necessary. Non-specific binding is estimated in the presence of 10 μM of phentolamine. Non-transfected cells have absolutely no binding activity.

T1 sequence (P35462 whole entry): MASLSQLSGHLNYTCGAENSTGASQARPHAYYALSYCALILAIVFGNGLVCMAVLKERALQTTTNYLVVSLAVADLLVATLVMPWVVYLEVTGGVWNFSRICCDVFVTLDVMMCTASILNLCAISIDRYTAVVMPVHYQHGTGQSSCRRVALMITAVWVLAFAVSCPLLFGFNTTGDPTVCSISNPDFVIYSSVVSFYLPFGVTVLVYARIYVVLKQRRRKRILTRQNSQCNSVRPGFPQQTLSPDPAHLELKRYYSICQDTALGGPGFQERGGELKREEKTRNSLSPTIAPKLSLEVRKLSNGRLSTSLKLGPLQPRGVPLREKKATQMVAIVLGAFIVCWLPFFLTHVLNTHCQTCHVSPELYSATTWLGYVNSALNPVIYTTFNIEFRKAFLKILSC

Ki [1]	SMILES	Ki [2]
0.76 nM	FC(F)(F)c1cccc(N2CCN(CCCCNc3cc(-c4ccccc4)ccn3)CC2)c1 [Example 4, 2-{4-[4-(3-trifluoromethyl-phenyl)piperazin-1-yl]butyl}amino-4-phenylpyridine dihydrochloride]	162 nM
0.55 nM	Clc1cccc(N2CCN(CCCCNc3cc(-c4ccccc4)ccn3)CC2)c1Cl [Example 6, 2-{4-[4-(2,3-dichlorophenyl)piperazin-1-yl]butyl}amino-4-phenylpyridine]	136 nM
